The record followed here is PubChem BioAssay AID256 (DTP/NCI, 2004).

Inconclusive results and toxic doses are left out.

In the experiment the test system is CD2F1 mice, L1210 leukemia ip, survival T/C. The experiment is described as follows: NCI In Vivo Anticancer Drug Screen. Data for tumor model L1210 Leukemia (intraperitoneal) in CD2F1 (CDF1) mice. The conditions noted are these: endpoint: mean survival time, higher = longer survival. The gist of the method:
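Tumor-bearing mice (transplanted tumor) were split into treated and vehicle control groups, and the measured endpoint of each treated group was divided by that of its vehicle controls.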

[1] abbreviates: dose: 100.0 mg/kg/injection, schedule: Q04DX003 (ip), vehicle: saline with Tween-80.
The mark [2] stands for this setting: dose: 200.0 mg/kg/injection, schedule: Q04DX003 (ip), vehicle: saline with Tween-80.
The mark [3] stands for this setting: dose: 400.0 mg/kg/injection, schedule: Q04DX003 (ip), vehicle: saline with Tween-80.
Setting [4] is: dose: 100.0 mg/kg/injection, schedule: Q04DX002 (ip), vehicle: saline with Tween-80.
Where [5] appears, read: dose: 200.0 mg/kg/injection, schedule: Q04DX002 (ip), vehicle: saline with Tween-80.
Where [6] appears, read: dose: 400.0 mg/kg/injection, schedule: Q04DX002 (ip), vehicle: saline with Tween-80.
[7] abbreviates: dose: 1.0 mg/kg/injection, schedule: Q01DX009 (ip), vehicle: saline.
[8] abbreviates: dose: 2.0 mg/kg/injection, schedule: Q01DX009 (ip), vehicle: saline.
Where [9] appears, read: dose: 4.0 mg/kg/injection, schedule: Q01DX009 (ip), vehicle: saline.
Where [10] appears, read: dose: 16.0 mg/kg/injection, schedule: Q01DX009 (ip), vehicle: saline.
Where [11] appears, read: dose: 50.0 mg/kg/injection, schedule: Q01DX009 (ip), vehicle: saline with Tween-80.
Setting [12] is: dose: 100.0 mg/kg/injection, schedule: Q01DX009 (ip), vehicle: saline with Tween-80.
Setting [13] is: dose: 200.0 mg/kg/injection, schedule: Q01DX009 (ip), vehicle: saline with Tween-80.
Setting [14] is: dose: 400.0 mg/kg/injection, schedule: Q01DX009 (ip), vehicle: saline with Tween-80.

Turning to `O=C(CN1CC1)NCCCCCCCCNC(=O)CN1CC1`, the T/C was 116 % of control (dose: 4.4 mg/kg/injection, schedule: Q01DX009 (ip), vehicle: carboxymethylcellulose (CMC)); 122 % of control (dose: 6.6 mg/kg/injection, schedule: Q01DX009 (ip), vehicle: carboxymethylcellulose (CMC)); 120 % of control (dose: 22.0 mg/kg/injection, schedule: Q01DX001 (ip), vehicle: carboxymethylcellulose (CMC)); 123 % of control (dose: 33.0 mg/kg/injection, schedule: Q01DX001 (ip), vehicle: carboxymethylcellulose (CMC)).
Regarding `CCOC(=O)c1cnc(SCc2ccccc2)[nH]c1=O`, the T/C runs as follows: under setting [1], 107 % of control; under setting [2], 110 % of control; under setting [3], 102 % of control.
For `CCOC(=O)C1=C(N)CCCC1`, the T/C (dose: 100.0 mg/kg/injection, schedule: Q01DX001 (ip), vehicle: Klucel (hydroxypropylcellulose) (HPC)) is 96 % of control; the T/C (dose: 200.0 mg/kg/injection, schedule: Q01DX001 (ip), vehicle: Klucel (hydroxypropylcellulose) (HPC)) was 122 % of control; the T/C (dose: 400.0 mg/kg/injection, schedule: Q01DX001 (ip), vehicle: Klucel (hydroxypropylcellulose) (HPC)) was 96 % of control.
With `CC(C)(C)C(=O)CC1(O)C(=O)Nc2cccc(C(F)(F)F)c21` (configuration not stated), the T/C is 102 % of control under setting [4], 109 % of control under setting [5] and 102 % of control under setting [6].
On to `O=c1nc(/C=C(\O)c2ccccc2)ccn1C1OC(CO)C(O)C1O` (configuration not stated), for which the T/C was 105 % of control (dose: 12.5 mg/kg/injection, schedule: Q01DX005 (ip), vehicle: distilled water + Tween-80); 94 % of control (dose: 25.0 mg/kg/injection, schedule: Q01DX005 (ip), vehicle: distilled water + Tween-80); 91 % of control (dose: 50.0 mg/kg/injection, schedule: Q01DX005 (ip), vehicle: distilled water + Tween-80); 94 % of control (dose: 100.0 mg/kg/injection, schedule: Q01DX005 (ip), vehicle: distilled water + Tween-80); 98 % of control (dose: 200.0 mg/kg/injection, schedule: Q01DX005 (ip), vehicle: distilled water + Tween-80).
Take `CC1=C(C)C(=O)O[C@@H]([C@](C)(O)[C@]2(O)CC[C@@]3(O)[C@@H]4C[C@H]5O[C@]56[C@@H](O)C=CC(=O)[C@]6(C)[C@H]4CC[C@]23C)C1`: the T/C under setting [7] is 113 % of control; the T/C under setting [8] is 104 % of control; the T/C (dose: 2.0 mg/kg/injection, schedule: Q01DX009 (ip), vehicle: suspension in saline) is 105 % of control; the T/C under setting [9] was 106 % of control; the T/C (dose: 4.0 mg/kg/injection, schedule: Q01DX009 (ip), vehicle: suspension in saline) was 108 % of control; the T/C (dose: 8.0 mg/kg/injection, schedule: Q01DX009 (ip), vehicle: saline) is 111 % of control. Besides, the T/C (dose: 8.0 mg/kg/injection, schedule: Q01DX009 (ip), vehicle: suspension in saline) is 114 % of control; the T/C under setting [10] was 103 % of control; the T/C (dose: 16.0 mg/kg/injection, schedule: Q01DX009 (ip), vehicle: suspension in saline) was 108 % of control; the T/C (dose: 32.0 mg/kg/injection, schedule: Q01DX009 (ip), vehicle: saline) was 87 % of control; the T/C (dose: 32.0 mg/kg/injection, schedule: Q01DX009 (ip), vehicle: suspension in saline) is 96 % of control.
Turning to `O=C(O)CC1(CC(=O)O)CCCCC1`, the T/C is 98 % of control under setting [11]; 94 % of control under setting [12]; 91 % of control under setting [1]; 100 % of control under setting [13]; 93 % of control under setting [2].
As for `C/C=C/c1ccc(OC(C)=O)c(OC)c1`, the T/C runs as follows: under setting [12], 100 % of control; under setting [1], 94 % of control; under setting [13], 94 % of control; under setting [2], 100 % of control; under setting [14], 105 % of control; under setting [3], 94 % of control.
Regarding `COc1cccc2c1C(=O)c1c(O)c3c(c(O)c1C2=O)C[C@@](O)(/C(C)=N\NC=O)C[C@@H]3OC1CC(N)C(O)C(C)O1` (some centres not stated), the T/C reads like this: (dose: 0.65 mg/kg/injection, schedule: Q01DX009 (ip), vehicle: saline) 113 % of control; under setting [7], 106 % of control; (dose: 1.08 mg/kg/injection, schedule: Q01DX009 (ip), vehicle: saline) 118 % of control; (dose: 1.8 mg/kg/injection, schedule: Q01DX009 (ip), vehicle: saline) 114 % of control; under setting [8], 124 % of control; (dose: 3.0 mg/kg/injection, schedule: Q04DX003 (ip), vehicle: saline) 123 % of control. For the same compound, the T/C is 123 % of control under setting [9]; 120 % of control (dose: 5.0 mg/kg/injection, schedule: Q04DX003 (ip), vehicle: saline); 161 % of control under setting [10]; 176 % of control (dose: 22.2 mg/kg/injection, schedule: Q04DX003 (ip), vehicle: saline).
As for `CNC(=S)Nc1ccc(OC)c2ccccc12`, the T/C runs as follows: (dose: 100.0 mg/kg/injection, schedule: Q04DX003 (ip), vehicle: Klucel (hydroxypropylcellulose) (HPC)) 86 % of control; (dose: 200.0 mg/kg/injection, schedule: Q04DX003 (ip), vehicle: Klucel (hydroxypropylcellulose) (HPC)) 88 % of control; (dose: 400.0 mg/kg/injection, schedule: Q04DX003 (ip), vehicle: Klucel (hydroxypropylcellulose) (HPC)) 89 % of control.
As for `O=C(O)CCn1c(=O)[nH]c(=O)n(CCC(=O)O)c1=O`, the T/C under setting [12] is 96 % of control; the T/C under setting [1] is 113 % of control; the T/C under setting [13] was 100 % of control; the T/C under setting [2] was 101 % of control; the T/C under setting [14] was 97 % of control; the T/C under setting [3] was 98 % of control.
Turning to `N=C(OC/C=C/c1ccccc1)C(Cl)(Cl)Cl`, the T/C (dose: 100.0 mg/kg/injection, schedule: Q01DX001 (ip), vehicle: saline with Tween-80) was 93 % of control; the T/C (dose: 200.0 mg/kg/injection, schedule: Q01DX001 (ip), vehicle: saline with Tween-80) was 93 % of control; the T/C (dose: 400.0 mg/kg/injection, schedule: Q01DX001 (ip), vehicle: saline with Tween-80) was 93 % of control.
For `CC12CCCCC1SC(F)(F)C2(F)F` (configuration not stated), the T/C is 111 % of control (dose: 12.5 mg/kg/injection, schedule: Q04DX003 (ip), vehicle: saline with Tween-80); 88 % of control (dose: 25.0 mg/kg/injection, schedule: Q04DX003 (ip), vehicle: saline with Tween-80); 103 % of control (dose: 50.0 mg/kg/injection, schedule: Q04DX003 (ip), vehicle: saline with Tween-80).
On to `CCOC(=O)C(=Cc1ccc(C=C(C(=O)OCC)C(=O)OCC)cc1)C(=O)OCC`, for which the T/C was 95 % of control (dose: 50.0 mg/kg/injection, schedule: Q01DX009 (ip), vehicle: Klucel (hydroxypropylcellulose) (HPC)); 95 % of control (dose: 100.0 mg/kg/injection, schedule: Q01DX009 (ip), vehicle: Klucel (hydroxypropylcellulose) (HPC)); 89 % of control (dose: 200.0 mg/kg/injection, schedule: Q01DX009 (ip), vehicle: Klucel (hydroxypropylcellulose) (HPC)).
Regarding `Cc1ccccc1S(=O)(=O)F`, the T/C runs as follows: under setting [11], 103 % of control; under setting [12], 107 % of control; under setting [1], 92 % of control; under setting [2], 89 % of control.
For `N#CCCCCN=[N+]=[N-]`, the T/C (dose: 75.0 mg/kg/injection, schedule: Q01DX001 (ip), vehicle: saline) is 97 % of control and the T/C (dose: 150.0 mg/kg/injection, schedule: Q01DX001 (ip), vehicle: saline) was 103 % of control.
For the compound `C/C=C/c1cc2c(c(=O)o1)C(=O)[C@@H](O)[C@H](C)O2`, the T/C (dose: 6.25 mg/kg/injection, schedule: Q01DX009 (ip), vehicle: saline with Tween-80) was 101 % of control; the T/C (dose: 12.5 mg/kg/injection, schedule: Q01DX009 (ip), vehicle: saline with Tween-80) was 105 % of control; the T/C (dose: 25.0 mg/kg/injection, schedule: Q01DX009 (ip), vehicle: saline with Tween-80) is 97 % of control; the T/C under setting [11] is 101 % of control; the T/C under setting [12] is 113 % of control.
As to `O=C(O)c1c(F)cccc1Br`, the T/C under setting [4] is 102 % of control, the T/C under setting [5] is 98 % of control and the T/C under setting [6] was 102 % of control.
